What all share (experiment): inhibition of tumour cell growth, NCI panel, 48 h
The test system of experiment [1] is SW-620 colon.
Experiment [2] deals with KM12 colon.
The test system of experiment [3] is OVCAR-5 ovarian.
Experiment [4] relates to UACC-62 melanoma.
Experiment [5] relates to MDA-MB-231 breast.
Experiment [6] concerns SF-268 CNS.
The test system of experiment [7] is SNB-75 CNS.
Experiment [8] deals with SF-539 CNS.
Experiment [9] deals with EKVX NSCLC.
The subject of experiment [10] is NCI-H522 lung.
The test system of experiment [11] is RPMI-8226 leukemia.
Experiment [12] deals with SF-295 CNS.
The test system of experiment [13] is A549 NSCLC.
Experiment [14] relates to OVCAR-4 ovarian.
In experiment [15] the test system is T-47D breast.
For experiment [16], the system named is OVCAR-8 ovarian.
Experiment [17] deals with SNB-19 CNS.
The subject of experiment [18] is MDA-N.

Each structure is given as a SMILES string.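 Assay format: 96-well plates, 48-hour exposure. TGI is the concentration that stops growth completely.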

In the case of `COC(=O)C1CC2(CCC1=O)Cc1ccccc1C2=O` (stereo unspecified), the TGI in [1], in experiment [2], in experiment [3], in experiment [4], in experiment [5] and in experiment [6] was above 100 µM each time. The TGI in [7], in experiment [8], in [9], in [10], in experiment [11] and in [12] was above 100 µM each time. The TGI in experiment [13], in [14], in [15], in experiment [16], in [17] and in [18] was above 100 µM throughout.

Take `CN(C)c1ccc(N=Nc2ccc3nc[nH]c3c2)cc1`: the TGI in experiment [1] was above 100 µM; in experiment [2] it was 63.9 µM; in experiment [3], 70.4 µM; in [4], 48.7 µM; in experiment [5] it was 39.4 µM; in [6] it was 54 µM. For the same molecule, the TGI in experiment [7] is 68.9 µM; in [8] it was 36.9 µM; in [9], above 100 µM; in experiment [10], 51.1 µM; in [11], 59.2 µM; in experiment [12] it was 57.3 µM. For the same molecule, the TGI in experiment [13] was above 100 µM; in experiment [14] it was 68.5 µM; in experiment [15], above 100 µM; in experiment [16] it was above 100 µM; in [17], above 100 µM; in experiment [18], above 100 µM.

As to `COc1nc(N)c(NC2OC(CO)C(O)C2O)c(=O)[nH]1` (stereo unspecified), the TGI in experiment [1], in [2], in experiment [3], in experiment [4], in experiment [5] and in experiment [6] was above 100 µM in each case. The TGI in experiment [7], in experiment [8], in experiment [9], in experiment [10], in [11] and in [12] was above 100 µM each time. In addition, the TGI in [13], in experiment [14], in experiment [15], in experiment [16], in [17] and in experiment [18] was above 100 µM in each case.

Take `C#CCOCC12C=CC(O1)C1C(=O)N(C)C(=O)C12` (stereo unspecified): the TGI in experiment [1], in experiment [2], in experiment [3], in [4], in [5] and in experiment [6] was above 100 µM each time. Also, the TGI in experiment [7], in [8], in experiment [9], in experiment [10], in [11] and in experiment [12] was above 100 µM throughout. For the same molecule, the TGI in [13], in experiment [14], in experiment [15], in experiment [16], in experiment [17] and in experiment [18] was above 100 µM each time.

In the case of `COC(=O)C1CCC(=O)N1CN(C(C)=O)c1ccccc1` (stereo unspecified), the TGI in experiment [1], in experiment [2], in experiment [3], in [4], in experiment [5] and in experiment [6] was above 100 µM in each case. For the same molecule, the TGI in experiment [7], in experiment [8], in [9], in experiment [10], in [11] and in [12] was above 100 µM throughout. Further, the TGI in experiment [13], in [14], in experiment [15], in experiment [16], in experiment [17] and in [18] was above 100 µM each time.

Regarding `COc1nc2c(c(=O)n1C)N(C(C)=O)C1C(N2)OCC(OC(C)=O)C1OC(C)=O` (stereo unspecified), the TGI in experiment [1], in experiment [2], in [3], in [4], in [5] and in experiment [6] was above 10 µM each time. The TGI in experiment [7], in experiment [8], in experiment [9], in [10], in [11] and in experiment [12] was above 10 µM in each case. In addition, the TGI in [13], in experiment [14], in experiment [15], in experiment [16], in experiment [17] and in experiment [18] was above 10 µM throughout.

Turning to `O=C(NNC1=NCCN1)c1ccco1`, the TGI in experiment [1], in experiment [2], in experiment [3], in experiment [4], in experiment [5] and in experiment [6] was above 100 µM each time. Further, the TGI in [7], in experiment [8], in experiment [9], in experiment [10], in [11] and in [12] was above 100 µM in each case. The TGI in [13], in experiment [14], in experiment [15], in experiment [16], in [17] and in [18] was above 100 µM each time.

These data come from PubChem BioAssay (NCI).
